Consider one molecule from patent publication US20250355005A1, “System and Method for Drug-Related Data Collection and Analysis” (FloBio LLC, priority 2023, published 2025).

Each structure is given as a SMILES string.

This assay deals with blood sample (fibrin and platelet accumulation at collagen/tissue factor reaction zone). The assay is described as follows: microfluidic flow assay of a blood sample treated with different doses of DOAC, fibrin and platelet fluorescence signal at two temperatures. The settings on record: increasing Rivaroxaban dose, in relation to the HBS control; 37° C. and 21° C. The format is cell-based, human. The text has this:
Fibrin signal decreases as Rivaroxaban (R) dose is increased, in relation to the HBS control, as expected. As temperature increases, fibrin reactions initiate carlier, fibrin and platelet maximum rate of change increases (steeper slope), and fibrin and platelet signals are increased overall at the same point in time. The DOAC drug dose effect seen at higher temperatures follows similar dose behavior seen at lower temperatures. As illustrated in FIGS. 49A-49B, about a two-fold platelet signal increase at 400 s is seen, a substantial increase in maximum rate of change of fluorescence is also seen. […]
The device 100 can allow for up to eight unique conditions to be tested simultaneously. […] Estimated drug level can be determined through comparison to a fully attenuated sample and a fully reversed sample, in comparison to an IC50 drug response curve, linear regression, […] analysis or other statistical methodology. […]
The system can rely on direct fluorescence signals for analysis of the results at the collagen/tissue factor 112. Fresh whole blood (used within minutes of venous draw), AF594 fibrinogen label (fibrinogen from human plasma, Alexa Fluor™ 594 conjugate) and platelet MCA2588A488 label (mouse anti-human CD61, Alexa Fluor™ 488 conjugate) can be added to the device 100 and the direct fluorescence signals can be analyzed. […]

As for `O=C(NC[C@H]1CN(c2ccc(N3CCOCC3=O)cc2)C(=O)O1)c1ccc(Cl)s1` [Rivaroxaban], the Fibrin signal result was “decreases”.
